Legend:
SAS cells = conditions: read-out: cytotoxicity IC50, SAS oral cancer cells; cited from earlier work
OEC-M1 cells = conditions: read-out: cytotoxicity IC50, OEC-M1 oral cancer cells; cited from earlier work
MDA-MB-231 cells = assay: HGF-induced cell migration wound-healing assay; conditions: Homo sapiens, MDA-MB-231, 24 h, read-out: Antimigratory activity IC50 ± SEM, MDA-MB-231, wound-healing assay, HGF 40 ng/mL, 24 h
[1] = molecular target: human placental glutathione S-transferase (GST); conditions: read-out: inhibition of human placental GST activity IC50; cited from earlier work

Question: For COc1cc(/C=C/C(=O)OCCc2ccc(O)cc2)ccc1O [Compound 5, Tyrosol ferulate], which IC50 (SAS cells) is on record?
Answer: The IC50 was greater than 100 µM.

Question: What about the IC50 (OEC-M1 cells) of the same molecule?
Answer: The IC50 was greater than 100 µM.

Question: Which IC50 (SAS cells) does the source give for O=C(/C=C/c1ccc(O)cc1)OCCc1ccc(O)cc1 [Compound 6, Tyrosol coumarate] here?
Answer: The IC50 was greater than 100 µM.

Question: What about the IC50 (OEC-M1 cells) of the same molecule?
Answer: The IC50 was greater than 100 µM.

Question: With COc1cc(/C=C/C=N/CCc2ccc(O)cc2)cc(OC)c1O [Compound 11] as the molecule, how does the IC50 (MDA-MB-231 cells) read?
Answer: Its IC50 is less than 5 µM.

Question: Which IC50 [1] does the source give for COc1cc(/C=C/COC(=O)/C=C/c2ccc(O)c(OC)c2)ccc1O [Compound 40, coniferyl ferulate] here?
Answer: Its IC50 is 0.3 µM.

From PMC5073051 (European journal of medicinal chemistry, 2016)
